Like-named read-outs stand apart in the source and are kept apart here.
Experiments:
[1] = system: Caco-2 monolayers; settings: cited from earlier work
[2] = system: T cells; assay type: cell-based, human; settings: T cells with T2 cells, Spike peptide […]; vs media alone
[3] = system: Calu-3 (human airway epithelial cell line) host cells; assay type: cell-based
[4] = Saturated aqueous solubility determination; settings: for solubility at 1.5 h: deionized water, 25 °C, water, thermodynamic from solid; for Ratio (relative to CM): solubility relative to creatine monohydrate
Protocol: After 1.5 hour, the saturated solutions were vortexed and 2-ml aliquots removed and centrifuged in microcentrifuge tubes at 11,000 rpm for 5 min. Concentrations were analyzed by HPLC by diluting 500 μL of supernatant with mobile phase (500 μL). The mean±standard deviation of the saturation solubility for each antiviral therapeutic compound is calculated from the corresponding standard curves.

[5] = system: Madin Darby canine kidney (MDCK) monolayers; test: Flux per hour in MDCK monolayers (contemplated); assay type: in vitro ADME
From the text: […]. […] […].

[6] = system: Calu-3 (human airway epithelial cell line) host cells; assay type: cell-based; remark: listed apart in the source

## CN(CC(=O)O)C(=N)N.O [creatine monohydrate, reference compound]
[1]
  apparent permeability coefficient: about 0.12±0.004 10^−6 cm/s

## ethyl (α-guanido-methyl) ethanoate [Alpha-GEE]
[2]
  release of IFNg from T cells: increased over the control
[3]
  reduction of CXCL2 expression: ~70%

## CCOC(=O)CN(C)C(=N)N.Cl [creatine ethyl ester hydrochloride]
[4]
  solubility at 1.5 h: > 200 mg/mL
[1]
  permeability relative to creatine monohydrate: 15 fold

## CCCCCCCCCCCC(=O)OCC(COC(=O)CCCCCCCCCCC)OC(=O)CN(C)C(=N)N [creatine glycerol laurate ester]
[5]
  flux per hour relative to creatine monohydrate: at least double

## CC(C)CCOC(=O)CN(C)C(=N)N.Cl [creatine isopentyl ester]
[4]
  solubility at 1.5 h: > 600 mg/mL
  Ratio (relative to CM): >29
[2]
  release of IFNg from T cells: increased over the control
[3]
  IL-1β expression as percent of the expression when no compound is present: less than 35%

## CN(CC(=O)O)C(=N)N.Cl [creatine hydrochloride]
[6]
  reduction of CXCL2 expression: 25 to 30%
  reduction of TNF expression: about 25%
[2]
  release of IFNg from T cells: increased over the control
[3]
  reduction of TNF expression: slightly reduces

## CN(CC(=O)OC1CCCCC1)C(=N)N.Cc1ccc(S(=O)(=O)O)cc1 [creatine cyclohexyl ester]
[5]
  flux per hour relative to creatine monohydrate: at least double
[4]
  solubility at 1.5 h: 15 to 20 mg/mL
  Ratio (relative to CM): 0.71
[2]
  release of IFNg from T cells: increased over the control
[3]
  IL-1β expression as percent of the expression when no compound is present: less than 20%
  IL-6 expression as percent of the expression when no compound is present: less than 30%

## CCCCCCCCCCCC(=O)OC(C)COC(=O)CN(C)C(=N)N (stereo not shown) [creatine propylene glycol laurate ester]
[5]
  flux per hour relative to creatine monohydrate: at least double

## C[N+](C)(C)CC(=O)OC1CCCC1.[Br-] [betaine cyclopentyl ester]
[6]
  IL-1β expression as percent of the expression when no compound is present: less than 20%
  IL-6 expression as percent of the expression when no compound is present: less than 55%
  TNF expression as percent of the expression when no compound is present: less than 20%
  reduction of IL-6 expression: about 60%
  reduction of TNF expression: about 45%
[4]
  solubility at 1.5 h: > 600 mg/mL
  Ratio (relative to CM): >29
[4]; not shown
  aqueous solubility compared with betaine hydrochloride: significantly greater than betaine hydrochloride
[2]
  release of IFNg from T cells: increased over the control
[3]
  reduction of TNF expression: slightly reduces

Source: patent US20230159442A1, “CELLULAR ENERGY COMPOUNDS, COMPOSITIONS, AND METHODS OF USE THEREOF” (priority 2021, published 2023)
